Results taken from ChEMBL document CHEMBL5465560, “Selectivity Literature for EUbOPEN Chemogenomic Library” (2024).
Each block holds one molecule with its values, some of them ahead of it.

Legend:
[1] = target: Serine/threonine-protein kinase N1 (Homo sapiens, UniProt Q16512); assay: Selectivity interaction (ActivX KiNativ screen (kinase selectivity in THP-1 cell lysates)) EUB0000639a PKN1; format: subcellular; details: lysate
[2] = target: Dual specificity tyrosine-phosphorylation-regulated kinase 1A (Homo sapiens, UniProt Q13627); assay: Selectivity interaction (KinomeScan (DiscoverX)) EUB0001550a DYRK1A; details: at 1 µM
[3] = target: Adenosine receptor A3 (Homo sapiens, UniProt P0DMS8); assay: Selectivity interaction (Adenosine 3 receptor binding assay, human recombinant ) EUB0000877a ADORA3
[4] = target: T1, Alpha-2A adrenergic receptor (Homo sapiens) (UniProt P08913); assay: Selectivity interaction (Eurofins CEREP Diversity Profile (receptors and ion channels)) EUB0000279b ADRA2A; details: at 10 µM
T1 sequence (whole entry): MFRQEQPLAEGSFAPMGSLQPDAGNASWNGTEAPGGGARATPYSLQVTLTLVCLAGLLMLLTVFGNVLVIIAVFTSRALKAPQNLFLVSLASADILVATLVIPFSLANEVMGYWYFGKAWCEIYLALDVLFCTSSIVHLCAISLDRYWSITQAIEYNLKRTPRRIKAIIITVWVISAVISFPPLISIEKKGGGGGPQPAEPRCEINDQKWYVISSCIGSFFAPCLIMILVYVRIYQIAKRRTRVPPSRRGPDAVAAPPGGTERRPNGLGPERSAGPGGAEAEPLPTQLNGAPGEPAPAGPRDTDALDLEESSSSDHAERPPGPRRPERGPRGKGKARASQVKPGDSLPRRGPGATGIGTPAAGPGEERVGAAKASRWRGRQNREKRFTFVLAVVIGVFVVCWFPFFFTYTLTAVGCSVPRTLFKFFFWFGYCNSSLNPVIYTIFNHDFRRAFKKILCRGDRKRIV

[5] = target: T2, Tyrosine-protein kinase ZAP-70 (Homo sapiens) (UniProt P43403); assay: Selectivity interaction (KinomeScan (DiscoverX)) EUB0000595a ZAP70; details: at 10 µM
T2 sequence (whole entry): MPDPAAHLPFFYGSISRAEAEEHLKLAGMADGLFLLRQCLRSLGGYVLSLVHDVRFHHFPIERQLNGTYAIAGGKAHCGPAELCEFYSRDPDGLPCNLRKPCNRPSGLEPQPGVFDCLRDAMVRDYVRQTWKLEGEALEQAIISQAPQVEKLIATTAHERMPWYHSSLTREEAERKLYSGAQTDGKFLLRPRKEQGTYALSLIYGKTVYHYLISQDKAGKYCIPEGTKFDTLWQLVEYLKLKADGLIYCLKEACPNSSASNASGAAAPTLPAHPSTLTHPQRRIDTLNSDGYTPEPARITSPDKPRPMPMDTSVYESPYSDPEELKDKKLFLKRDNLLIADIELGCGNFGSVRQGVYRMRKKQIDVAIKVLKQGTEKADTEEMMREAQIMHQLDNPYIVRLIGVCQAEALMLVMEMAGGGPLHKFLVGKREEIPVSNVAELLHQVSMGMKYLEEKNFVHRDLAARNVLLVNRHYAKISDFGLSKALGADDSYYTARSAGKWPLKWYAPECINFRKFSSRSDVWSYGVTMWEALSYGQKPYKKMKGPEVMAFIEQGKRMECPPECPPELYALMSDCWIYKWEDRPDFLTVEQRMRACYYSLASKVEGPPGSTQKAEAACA

[6] = target: Calcium/calmodulin-dependent protein kinase type 1 (Homo sapiens) (UniProt Q14012); assay: Selectivity interaction (KinomeScan (DiscoverX)) EUB0000092b CAMK1; details: at 10 µM
[7] = target: Protein kinase C beta type (Homo sapiens, UniProt P05771); assay: Selectivity interaction (Upstate Kinase Profiler service (Millipore)) EUB0000056c PRKCB; details: at 1 µM
[8] = target: Serine/threonine-protein kinase N2 (Homo sapiens, UniProt Q16513); assay: Selectivity interaction (KinomeScan (DiscoverX)) EUB0001619a PKN2; details: at 1 µM
[9] = target: Phosphatidylinositol 4-kinase beta (Homo sapiens, UniProt Q9UBF8); assay: Selectivity interaction (KinomeScan (DiscoverX)) EUB0000618a PI4KB; details: at 10 µM
[10] = target: T3, cGMP-dependent protein kinase 1 (Homo sapiens) (UniProt Q13976); assay: Selectivity interaction (KinomeScan (DiscoverX)) EUB0000666a PRKG1; details: at 10 µM
T3 sequence (whole entry): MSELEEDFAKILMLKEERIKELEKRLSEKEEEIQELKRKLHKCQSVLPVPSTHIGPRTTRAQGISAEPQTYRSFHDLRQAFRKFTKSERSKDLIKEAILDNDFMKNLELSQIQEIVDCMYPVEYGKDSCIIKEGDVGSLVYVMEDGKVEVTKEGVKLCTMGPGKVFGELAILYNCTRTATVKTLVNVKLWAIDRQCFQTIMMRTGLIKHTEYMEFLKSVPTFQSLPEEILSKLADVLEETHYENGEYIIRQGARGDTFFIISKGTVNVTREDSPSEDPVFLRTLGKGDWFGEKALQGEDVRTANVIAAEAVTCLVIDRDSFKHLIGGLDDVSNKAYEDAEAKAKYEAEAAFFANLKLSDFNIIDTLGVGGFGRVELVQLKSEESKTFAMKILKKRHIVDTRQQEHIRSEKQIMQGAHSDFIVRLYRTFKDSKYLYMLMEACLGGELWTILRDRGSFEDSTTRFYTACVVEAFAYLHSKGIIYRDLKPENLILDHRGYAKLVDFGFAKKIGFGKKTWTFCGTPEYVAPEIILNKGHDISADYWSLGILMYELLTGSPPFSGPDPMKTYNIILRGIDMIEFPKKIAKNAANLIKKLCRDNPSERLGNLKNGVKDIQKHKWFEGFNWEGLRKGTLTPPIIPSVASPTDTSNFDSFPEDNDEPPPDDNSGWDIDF

Sequence of Serine/threonine-protein kinase N1 (Q16512 2-942 limits assumed): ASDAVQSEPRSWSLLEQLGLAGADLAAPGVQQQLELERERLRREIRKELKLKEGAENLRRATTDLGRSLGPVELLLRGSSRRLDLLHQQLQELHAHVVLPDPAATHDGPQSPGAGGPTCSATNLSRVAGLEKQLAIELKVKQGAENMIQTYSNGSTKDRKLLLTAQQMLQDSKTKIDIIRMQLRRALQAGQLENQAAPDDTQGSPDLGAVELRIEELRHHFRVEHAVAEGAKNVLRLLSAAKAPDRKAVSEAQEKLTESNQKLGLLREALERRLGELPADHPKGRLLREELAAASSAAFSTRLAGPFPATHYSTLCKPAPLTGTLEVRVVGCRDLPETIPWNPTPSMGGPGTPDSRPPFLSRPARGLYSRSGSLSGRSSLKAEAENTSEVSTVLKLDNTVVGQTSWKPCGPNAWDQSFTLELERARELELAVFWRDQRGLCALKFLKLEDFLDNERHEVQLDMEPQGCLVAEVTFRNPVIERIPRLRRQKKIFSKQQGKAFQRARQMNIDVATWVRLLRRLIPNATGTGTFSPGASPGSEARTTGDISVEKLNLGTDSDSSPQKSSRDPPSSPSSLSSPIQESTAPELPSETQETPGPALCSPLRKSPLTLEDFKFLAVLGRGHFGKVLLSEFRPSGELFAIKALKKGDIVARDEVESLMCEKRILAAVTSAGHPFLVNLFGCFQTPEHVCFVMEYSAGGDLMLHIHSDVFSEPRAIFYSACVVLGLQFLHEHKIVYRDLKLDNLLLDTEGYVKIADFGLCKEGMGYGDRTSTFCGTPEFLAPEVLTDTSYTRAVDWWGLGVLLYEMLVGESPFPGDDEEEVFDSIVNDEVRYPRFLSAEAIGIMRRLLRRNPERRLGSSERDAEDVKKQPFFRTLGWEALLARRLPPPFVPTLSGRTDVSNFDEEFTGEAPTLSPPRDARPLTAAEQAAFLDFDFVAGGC
Sequence of Protein kinase C beta type (P05771 2-671 limits assumed): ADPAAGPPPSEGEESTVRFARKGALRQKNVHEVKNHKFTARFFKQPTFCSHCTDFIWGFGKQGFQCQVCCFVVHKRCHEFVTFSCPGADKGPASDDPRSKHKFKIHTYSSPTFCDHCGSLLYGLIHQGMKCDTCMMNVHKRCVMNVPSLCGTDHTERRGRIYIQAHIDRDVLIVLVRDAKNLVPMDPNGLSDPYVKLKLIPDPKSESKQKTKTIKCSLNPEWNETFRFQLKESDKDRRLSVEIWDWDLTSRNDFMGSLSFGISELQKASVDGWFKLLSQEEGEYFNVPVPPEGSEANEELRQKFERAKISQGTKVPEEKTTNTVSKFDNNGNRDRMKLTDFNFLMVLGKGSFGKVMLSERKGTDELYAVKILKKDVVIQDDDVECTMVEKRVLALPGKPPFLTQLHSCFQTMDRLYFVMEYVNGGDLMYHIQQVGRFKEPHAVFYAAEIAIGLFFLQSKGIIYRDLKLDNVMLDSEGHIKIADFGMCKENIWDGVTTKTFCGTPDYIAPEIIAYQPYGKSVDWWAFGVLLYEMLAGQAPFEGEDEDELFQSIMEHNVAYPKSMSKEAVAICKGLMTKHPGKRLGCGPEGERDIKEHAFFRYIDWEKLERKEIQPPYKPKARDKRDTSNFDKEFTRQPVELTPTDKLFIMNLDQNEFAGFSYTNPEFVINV
Sequence of Phosphatidylinositol 4-kinase beta (Q9UBF8 2-816 limits assumed): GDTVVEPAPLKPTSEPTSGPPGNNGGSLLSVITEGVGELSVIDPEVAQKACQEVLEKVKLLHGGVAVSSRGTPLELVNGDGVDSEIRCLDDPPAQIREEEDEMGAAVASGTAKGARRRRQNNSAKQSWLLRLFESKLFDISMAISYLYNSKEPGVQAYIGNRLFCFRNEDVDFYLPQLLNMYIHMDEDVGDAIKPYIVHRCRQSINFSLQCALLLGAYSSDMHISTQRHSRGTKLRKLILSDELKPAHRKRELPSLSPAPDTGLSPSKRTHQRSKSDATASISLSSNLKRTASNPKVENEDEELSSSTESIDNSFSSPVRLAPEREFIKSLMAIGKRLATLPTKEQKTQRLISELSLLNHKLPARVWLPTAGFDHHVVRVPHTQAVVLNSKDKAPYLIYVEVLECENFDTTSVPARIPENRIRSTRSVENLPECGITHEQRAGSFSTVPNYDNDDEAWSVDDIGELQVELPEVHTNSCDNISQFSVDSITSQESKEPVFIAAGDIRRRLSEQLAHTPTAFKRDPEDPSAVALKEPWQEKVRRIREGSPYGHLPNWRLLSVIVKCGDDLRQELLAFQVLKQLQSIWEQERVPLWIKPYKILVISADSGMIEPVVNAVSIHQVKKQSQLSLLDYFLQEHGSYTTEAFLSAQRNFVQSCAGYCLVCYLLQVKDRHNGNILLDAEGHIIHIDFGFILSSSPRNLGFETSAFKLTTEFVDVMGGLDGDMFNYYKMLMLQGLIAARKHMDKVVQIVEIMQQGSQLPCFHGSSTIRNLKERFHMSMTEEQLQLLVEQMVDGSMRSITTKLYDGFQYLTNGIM
Sequence of Adenosine receptor A3 (P0DMS8 whole entry): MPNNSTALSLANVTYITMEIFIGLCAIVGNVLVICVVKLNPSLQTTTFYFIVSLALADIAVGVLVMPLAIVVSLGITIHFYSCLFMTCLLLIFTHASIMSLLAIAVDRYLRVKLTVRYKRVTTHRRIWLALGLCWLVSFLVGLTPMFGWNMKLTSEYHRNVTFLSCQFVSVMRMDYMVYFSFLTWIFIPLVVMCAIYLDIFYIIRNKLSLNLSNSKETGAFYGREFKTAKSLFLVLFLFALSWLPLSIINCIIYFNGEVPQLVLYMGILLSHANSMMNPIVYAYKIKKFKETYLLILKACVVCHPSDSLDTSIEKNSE
Sequence of Calcium/calmodulin-dependent protein kinase type 1 (Homo sapiens) (Q14012 whole entry, looked up): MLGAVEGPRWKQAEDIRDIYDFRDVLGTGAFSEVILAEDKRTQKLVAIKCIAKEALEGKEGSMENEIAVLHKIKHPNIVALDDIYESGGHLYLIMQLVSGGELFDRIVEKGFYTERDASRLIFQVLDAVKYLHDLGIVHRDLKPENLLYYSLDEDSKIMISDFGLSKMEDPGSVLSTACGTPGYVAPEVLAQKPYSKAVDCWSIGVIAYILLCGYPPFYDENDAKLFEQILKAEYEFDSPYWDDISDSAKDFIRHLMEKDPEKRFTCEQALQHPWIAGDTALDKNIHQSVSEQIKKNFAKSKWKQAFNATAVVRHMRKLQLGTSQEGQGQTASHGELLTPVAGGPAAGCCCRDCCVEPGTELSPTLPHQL
Sequence of Serine/threonine-protein kinase N2 (Q16513 whole entry, looked up): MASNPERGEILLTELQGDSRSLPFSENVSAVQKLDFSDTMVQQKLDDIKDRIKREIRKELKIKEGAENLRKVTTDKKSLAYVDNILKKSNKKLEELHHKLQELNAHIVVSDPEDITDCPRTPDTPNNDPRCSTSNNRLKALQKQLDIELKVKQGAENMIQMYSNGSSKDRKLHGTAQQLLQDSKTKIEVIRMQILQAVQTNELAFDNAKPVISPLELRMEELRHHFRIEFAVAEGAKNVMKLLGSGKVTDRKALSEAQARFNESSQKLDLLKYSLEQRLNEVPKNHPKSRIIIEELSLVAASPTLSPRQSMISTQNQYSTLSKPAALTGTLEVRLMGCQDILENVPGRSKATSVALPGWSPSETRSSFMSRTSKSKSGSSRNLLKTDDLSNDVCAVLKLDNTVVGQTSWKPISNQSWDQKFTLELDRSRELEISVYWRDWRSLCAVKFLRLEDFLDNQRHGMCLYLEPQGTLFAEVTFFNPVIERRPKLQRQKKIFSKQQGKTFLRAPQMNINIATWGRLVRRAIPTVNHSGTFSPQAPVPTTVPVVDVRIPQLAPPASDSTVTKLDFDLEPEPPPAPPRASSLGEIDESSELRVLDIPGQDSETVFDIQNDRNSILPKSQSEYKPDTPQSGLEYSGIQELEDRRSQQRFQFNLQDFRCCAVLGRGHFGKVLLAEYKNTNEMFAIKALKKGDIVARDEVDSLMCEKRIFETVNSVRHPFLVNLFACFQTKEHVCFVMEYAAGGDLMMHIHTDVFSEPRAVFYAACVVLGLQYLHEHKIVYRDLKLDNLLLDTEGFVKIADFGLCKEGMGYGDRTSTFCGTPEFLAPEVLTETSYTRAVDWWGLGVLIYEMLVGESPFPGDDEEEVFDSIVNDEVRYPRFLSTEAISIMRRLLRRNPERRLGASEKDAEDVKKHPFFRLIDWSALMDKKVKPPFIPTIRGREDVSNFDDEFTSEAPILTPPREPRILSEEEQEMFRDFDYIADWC

% of inhibition ([1]; at 0.01 µM): 8.7%
% of inhibition ([1]; at 0.04 µM): 3.4%
% of inhibition ([1]; at 0.2 µM): 5%
% of inhibition ([1]; at 1 µM): 5.9%
% of inhibition ([1]; at 5 µM): 34.9%
SMILES: CC[C@@H]1[C@H](F)C(=O)N[C@@H]1COc1nccc2cc(C(N)=O)c(OC)cc12 [ZIMLOVISERTIB]

% of control [2]: 9.9%
SMILES: CN(C)CC#Cc1ccc2[nH]c3c(c2c1)-c1nc(N)ncc1CCC3

IC50 [3]: > 30 µM
SMILES: CCC(=O)N1CC[C@H](Nc2ncnc3c2CN(c2cnc(OC)c(C(F)(F)F)c2)CC3)C1 [LENIOLISIB]

% of control [4]: 100%
SMILES: CC(=O)c1cc(-c2ccccc2OCC2CC2)c2ncccn12

SMILES: COCC(=O)NC/C=C/c1ccc2ncnc(Nc3ccc(Oc4ccc(C)nc4)c(C)c3)c2c1 [CP-724714]
% of control [5]: 100%

SMILES: CCC(=O)N1CCN(c2ccc(-n3c(=O)ccc4cnc5ccc(-c6cnc7ccccc7c6)cc5c43)cc2C(F)(F)F)CC1
% of control [6]: 50%

% of inhibition [7]: 8%
SMILES: Cc1ccc(-c2ccc3c(ccc4sc5c(c43)NC[C@@H](C)NC5=O)n2)cn1

SMILES: N#Cc1cccc(-c2c[nH]c3ncnc(N4CCOCC4)c23)c1
% of control [8]: 35%

SMILES: O[C@H]1CC[C@H](Nc2ncc3nc(Nc4c(F)cc(F)cc4F)n([C@H]4CCOC4)c3n2)CC1
% of control [9]: 100%

SMILES: O=C(NOC[C@H](O)CO)c1ccc(F)c(F)c1Nc1ccc(I)cc1F
% of control [10]: 100%
